Measured values from patent US20110268807A1, “Biodegradable Microspheres and Methods of Use Thereof” (priority 2008, published 2011).

Tests used:
[1] = Atropine release per cycle (atropine content in filtrate), nanoparticles; assay type: physicochemical; conditions: FIG. 17B
From the text: FIGS. 17A and 17B depict atropine release. […] The first sharp decrease in atropine release would be related to the excess atropine in solution. The slow release characteristic of the second slope would be the drug release associated with nanoparticle degradation.

[2] = Release of atropine from hydrogel in medium at 37° C., static conditions; assay type: physicochemical
From the text: FIG. 16 depicts release rate of atropine from hydrogel. […] Hydrogel for the second release test (B) was soaked in excess drug solution to reach maximum swelling. Almost no drug retention was observed; therefore, the release is approximately zero.

Compound: CN1[C@@H]2CC[C@H]1C[C@@H](OC(=O)C(CO)c1ccccc1)C2 (stereo partly shown) [atropine]
- cumulative release percentage per cycle [1]: all the atropine was release by the seventh cycle
- atropine release from hydrogel ([2]; first preliminary test (A): hydrogel absorbed all of the drug solution, medium at 37° C., static conditions): 68%
- time course of atropine release from hydrogel ([2]; first preliminary test (A), burst effect): most of which occurred during the first two hours
- atropine release from hydrogel ([2]; second release test (B): hydrogel soaked in excess drug solution to maximum swelling, almost no drug retention): approximately zero
